# Results reported in ChEMBL document CHEMBL6103619, “Discovery of a Novel CRBN-Recruiting cGAS PROTAC Degrader for the Treatment of Ulcerative Colitis” (J Med Chem, 2025).
# Active and inactive are the calls of the source. The calls are words filed in the database; no cut-off is given here.
# Columns and labels:
# [1] = (§1) Inhibition of dsDNA-induced cGAS signaling pathway in human THP1-Lucia ISG cells preincubated with compound for 24 hrs followed by HT-DNA addition and measured after 24 hrs by QUANTI-Luc luciferase reagent based assay; format: cell-based
# [2] = system: THP1-Lucia ISG; test: as §1; format: cell-based; settings: time 48.0 hrs
# [3] = (§2) Inhibition of dsDNA-induced cGAS signaling pathway in mouse RAW-Lucia ISG cells preincubated with compound for 24 hrs followed by HT-DNA addition and measured after 24 hrs by QUANTI-Luc luciferase reagent based assay; format: cell-based
# [4] = system: RAW-Lucia ISG; test: as §2; format: cell-based; settings: time 48.0 hrs
# [5] = molecular target: Protein cereblon/Cyclic GMP-AMP synthase (Homo sapiens, UniProt Q96SW2+Q8N884); test: PROTAC activity at CRBN/cGAS in human THP-1 cells assessed as induction of cGAS degradation by measuring maximal efficacy at 20 uM preincubated with compound for 40 hrs followed by HT-DNA stimulation and measured after 8 hrs by Western blot analysis relative to control; format: cell-based; settings: time 48.0 hrs
# Sequence of Protein cereblon/Cyclic GMP-AMP synthase (Q8N884 whole entry, looked up): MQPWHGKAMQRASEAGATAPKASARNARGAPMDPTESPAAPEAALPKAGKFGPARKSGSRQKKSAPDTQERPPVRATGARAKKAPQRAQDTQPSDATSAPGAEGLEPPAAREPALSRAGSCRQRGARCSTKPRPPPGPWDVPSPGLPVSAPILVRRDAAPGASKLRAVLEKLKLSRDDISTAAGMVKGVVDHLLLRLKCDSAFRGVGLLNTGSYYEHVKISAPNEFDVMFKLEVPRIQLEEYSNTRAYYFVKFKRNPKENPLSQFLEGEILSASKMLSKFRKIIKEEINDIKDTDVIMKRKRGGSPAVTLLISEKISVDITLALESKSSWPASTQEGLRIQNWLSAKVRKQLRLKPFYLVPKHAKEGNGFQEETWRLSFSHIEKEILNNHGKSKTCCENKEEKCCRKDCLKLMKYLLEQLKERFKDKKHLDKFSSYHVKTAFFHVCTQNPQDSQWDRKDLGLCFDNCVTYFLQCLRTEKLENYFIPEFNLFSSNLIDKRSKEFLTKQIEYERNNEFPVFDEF
# Sequence of Protein cereblon/Cyclic GMP-AMP synthase (Q96SW2 whole entry, looked up): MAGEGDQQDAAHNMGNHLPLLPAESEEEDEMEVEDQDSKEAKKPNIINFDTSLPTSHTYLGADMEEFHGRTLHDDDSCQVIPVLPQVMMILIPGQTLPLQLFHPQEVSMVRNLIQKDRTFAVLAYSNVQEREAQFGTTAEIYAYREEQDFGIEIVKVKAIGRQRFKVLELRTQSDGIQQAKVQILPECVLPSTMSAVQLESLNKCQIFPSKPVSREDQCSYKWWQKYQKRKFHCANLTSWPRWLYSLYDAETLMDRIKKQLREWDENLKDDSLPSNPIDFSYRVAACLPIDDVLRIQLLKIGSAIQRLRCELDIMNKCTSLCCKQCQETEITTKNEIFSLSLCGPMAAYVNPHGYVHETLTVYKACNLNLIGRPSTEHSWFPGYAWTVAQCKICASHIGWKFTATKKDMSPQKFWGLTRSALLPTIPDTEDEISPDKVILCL
# [6] = molecular target: T1, Protein cereblon/Cyclic GMP-AMP synthase (Mus musculus) (UniProt Q8C6L5+Q8C7D2); test: PROTAC activity at CRBN/cGAS in mouse RAW264.7 cells assessed as induction of cGAS degradation by measuring maximal efficacy at 20 uM preincubated with compound for 40 hrs followed by HT-DNA stimulation and measured after 8 hrs by Western blot analysis relative to control; format: cell-based; settings: time 48.0 hrs
# T1 sequence (Q8C6L5 whole entry, looked up): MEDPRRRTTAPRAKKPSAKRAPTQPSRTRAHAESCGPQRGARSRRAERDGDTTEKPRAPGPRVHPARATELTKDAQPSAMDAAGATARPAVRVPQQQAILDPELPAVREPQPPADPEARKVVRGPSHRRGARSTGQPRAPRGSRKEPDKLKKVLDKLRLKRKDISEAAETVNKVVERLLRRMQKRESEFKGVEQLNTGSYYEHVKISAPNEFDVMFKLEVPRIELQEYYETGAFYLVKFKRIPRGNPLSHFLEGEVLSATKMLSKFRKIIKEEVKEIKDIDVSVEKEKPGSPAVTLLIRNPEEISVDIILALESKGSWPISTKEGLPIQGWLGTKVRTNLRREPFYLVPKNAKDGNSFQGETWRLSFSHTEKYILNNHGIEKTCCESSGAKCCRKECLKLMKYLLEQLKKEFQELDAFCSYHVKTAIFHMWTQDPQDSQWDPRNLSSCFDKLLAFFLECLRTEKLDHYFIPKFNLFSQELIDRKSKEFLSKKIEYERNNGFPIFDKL
# T1 sequence (Q8C7D2 whole entry, looked up): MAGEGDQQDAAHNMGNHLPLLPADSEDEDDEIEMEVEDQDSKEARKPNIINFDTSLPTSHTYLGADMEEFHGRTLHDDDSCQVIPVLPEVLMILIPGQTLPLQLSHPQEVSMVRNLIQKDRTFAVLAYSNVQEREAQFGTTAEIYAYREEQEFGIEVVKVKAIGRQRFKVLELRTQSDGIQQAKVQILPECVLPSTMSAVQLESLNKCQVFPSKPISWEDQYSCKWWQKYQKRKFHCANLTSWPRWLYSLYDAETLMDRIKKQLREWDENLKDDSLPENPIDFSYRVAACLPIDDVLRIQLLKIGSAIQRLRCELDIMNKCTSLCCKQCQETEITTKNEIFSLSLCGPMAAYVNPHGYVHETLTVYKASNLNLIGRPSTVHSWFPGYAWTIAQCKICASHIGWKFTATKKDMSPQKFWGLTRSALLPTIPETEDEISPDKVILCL
# [7] = Downregulation of cGAS protein level in human THP-1 cells at 10 uM incubated for 48 hrs by MS-based LFQ whole proteome analysis relative to control; format: functional
# [8] = Cytotoxicity against mouse RAW-Lucia ISG cells assessed as reduction in cell viability upto 60 uM incubated for 48 hrs by CCK8 assay; format: toxicity, cell-based
# [9] = AUC (0 to 24 hrs) in male C57BL/6 mouse at 1 mg/kg, iv measured after 24 hrs by LC-MS/MS analysis; format: ADME, organism-based; settings: in vivo
# [10] = molecular target: T1, Protein cereblon/Cyclic GMP-AMP synthase (Mus musculus); test: In vivo inhibition of cGAS signaling pathway in DSS-induced ulcerative colitis C57BL/6 mouse model assessed as reduction in TBK1 phosphorylation level in colon preadministered with DSS for 7 days followed by replacement with ultrapure water for 3 days with subsequent intraperitoneal compound administration starting from day 4 to 10 and measured on day 11 by Western blot analysis; format: functional, organism-based; settings: dose 20-50 mg/kg/day, route ip, time 8.0 day
# [11] = system: Mus musculus; test: (§3) Anti-inflammatory activity in DSS-induced ulcerative colitis C57BL/6 mouse model assessed as reduction in TNF-alpha mRNA level in colon at 20 to 50 mg/kg/day, ip preadministered with DSS for 7 days followed by replacement with ultrapure water for 3 days with subsequent compound administration starting from day 4 to 10 and measured on day 11 by qRT-PCR analysis; format: functional, organism-based; settings: dose 20-50 mg/kg/day, time 8.0 day
# [12] = system: Mus musculus; test: as §3, with “secretion” for “mRNA level”, “ELISA” for “qRT-PCR analysis”; format: functional, organism-based; settings: dose 20-50 mg/kg/day, time 8.0 day
# [13] = system: Mus musculus; test: as §3, with “mucosal NET formation by measuring reduction in citH3” for “TNF-alpha mRNA”, “immunofluorescence imaging” for “qRT-PCR”; format: functional, organism-based; settings: dose 20-50 mg/kg/day, time 8.0 day
smiles,measurement,setting,value
Cn1ccc(-c2cc(Cl)c(Cl)c3[nH]c4c(c23)CN(C(=O)CNC(=O)CCCC#Cc2cccc3c2CN(C2CCC(=O)NC2=O)C3=O)CC4)n1 (stereo not drawn),IC50,[1],1.8 µM
same,inhibition,[2],Dose-dependent-effect
same,IC50,[3],4.8 µM
same,inhibition,[4],Dose-dependent-effect
same,Emax,[5],94.4%
same,Emax,[6],91.6%
same,Activity,[7],>80%
same,Activity,[8],Non-toxic
same,AUC(0-t) at 24 h,[9],530 ng·h/mL
same,inhibition,[10],Dose-dependent-effect
same,Activity,[11],Active
same,Activity,[12],Active
same,Activity,[13],Active
